Results from PubChem BioAssay (NCI).
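Assay format: 96-well plates, 48-hour exposure. TGI: concentration producing complete growth inhibition.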

What was measured:
Experiment in all cases: DTP human tumour cell line panel, 48 h
A549 NSCLC = test system: A549 NSCLC
ACHN renal = test system: ACHN renal
CAKI-1 renal = test system: CAKI-1 renal
CCRF-CEM leukemia = test system: CCRF-CEM leukemia
COLO 205 colon = test system: COLO 205 colon
DU-145 prostate = test system: DU-145 prostate
EKVX NSCLC = test system: EKVX NSCLC
HCC-2998 colon = test system: HCC-2998 colon
HCT-116 colon = test system: HCT-116 colon
HCT-15 colon = test system: HCT-15 colon
HL-60(TB) leukemia = test system: HL-60(TB) leukemia
HOP-92 NSCLC = test system: HOP-92 NSCLC
HS 578T breast = test system: HS 578T breast
HT29 colon = test system: HT29 colon
IGROV1 ovarian = test system: IGROV1 ovarian
K-562 leukemia = test system: K-562 leukemia
KM12 colon = test system: KM12 colon
LOX IMVI melanoma = test system: LOX IMVI melanoma
M14 melanoma = test system: M14 melanoma
MCF7 breast = test system: MCF7 breast
MDA-MB-231 breast = test system: MDA-MB-231 breast
MDA-MB-435 = test system: MDA-MB-435
MDA-N = test system: MDA-N
MOLT-4 leukemia = test system: MOLT-4 leukemia
NCI-H23 lung = test system: NCI-H23 lung
NCI-H460 lung = test system: NCI-H460 lung
NCI-H522 lung = test system: NCI-H522 lung
NCI/ADR-RES ovarian = test system: NCI/ADR-RES ovarian
OVCAR-3 ovarian = test system: OVCAR-3 ovarian
OVCAR-4 ovarian = test system: OVCAR-4 ovarian
OVCAR-5 ovarian = test system: OVCAR-5 ovarian
OVCAR-8 ovarian = test system: OVCAR-8 ovarian
PC-3 prostate = test system: PC-3 prostate
RPMI-8226 leukemia = test system: RPMI-8226 leukemia
RXF 393 renal = test system: RXF 393 renal
SF-268 CNS = test system: SF-268 CNS
SF-295 CNS = test system: SF-295 CNS
SF-539 CNS = test system: SF-539 CNS
SK-MEL-2 melanoma = test system: SK-MEL-2 melanoma
SK-MEL-28 melanoma = test system: SK-MEL-28 melanoma
SK-MEL-5 melanoma = test system: SK-MEL-5 melanoma
SK-OV-3 ovarian = test system: SK-OV-3 ovarian
SN12C renal = test system: SN12C renal
SNB-19 CNS = test system: SNB-19 CNS
SNB-75 CNS = test system: SNB-75 CNS
SR leukemia = test system: SR leukemia
SW-620 colon = test system: SW-620 colon
T-47D breast = test system: T-47D breast
TK-10 renal = test system: TK-10 renal
U251 CNS = test system: U251 CNS
UACC-257 melanoma = test system: UACC-257 melanoma
UACC-62 melanoma = test system: UACC-62 melanoma
UO-31 renal = test system: UO-31 renal
786-0 renal = test system: 786-0 renal
HOP-62 NSCLC = test system: HOP-62 NSCLC
NCI-H226 lung = test system: NCI-H226 lung
MALME-3M melanoma = test system: MALME-3M melanoma

CCOC(=O)C(NC(=O)CC)(Nc1ccccc1OC)C(F)(F)F (centres undefined)
TGI (A549 NSCLC): > 100 µM
TGI (ACHN renal): > 100 µM
TGI (CAKI-1 renal): > 100 µM
TGI (CCRF-CEM leukemia): > 100 µM
TGI (COLO 205 colon): > 100 µM
TGI (DU-145 prostate): > 100 µM
TGI (EKVX NSCLC): > 100 µM
TGI (HCC-2998 colon): > 100 µM
TGI (HCT-116 colon): > 100 µM
TGI (HCT-15 colon): > 100 µM
TGI (HL-60(TB) leukemia): > 100 µM
TGI (HOP-92 NSCLC): > 100 µM
TGI (HS 578T breast): > 100 µM
TGI (HT29 colon): > 100 µM
TGI (IGROV1 ovarian): > 100 µM
TGI (K-562 leukemia): > 100 µM
TGI (KM12 colon): > 100 µM
TGI (LOX IMVI melanoma): > 100 µM
TGI (M14 melanoma): > 100 µM
TGI (MCF7 breast): > 100 µM
TGI (MDA-MB-231 breast): > 100 µM
TGI (MDA-MB-435): > 100 µM
TGI (MDA-N): > 100 µM
TGI (MOLT-4 leukemia): > 100 µM
TGI (NCI-H23 lung): > 100 µM
TGI (NCI-H460 lung): > 100 µM
TGI (NCI-H522 lung): > 100 µM
TGI (NCI/ADR-RES ovarian): > 100 µM
TGI (OVCAR-3 ovarian): > 100 µM
TGI (OVCAR-4 ovarian): > 100 µM
TGI (OVCAR-5 ovarian): > 100 µM
TGI (OVCAR-8 ovarian): > 100 µM
TGI (PC-3 prostate): > 100 µM
TGI (RPMI-8226 leukemia): > 100 µM
TGI (RXF 393 renal): > 100 µM
TGI (SF-268 CNS): > 100 µM
TGI (SF-295 CNS): > 100 µM
TGI (SF-539 CNS): > 100 µM
TGI (SK-MEL-2 melanoma): > 100 µM
TGI (SK-MEL-28 melanoma): > 100 µM
TGI (SK-MEL-5 melanoma): > 100 µM
TGI (SK-OV-3 ovarian): > 100 µM
TGI (SN12C renal): > 100 µM
TGI (SNB-19 CNS): > 100 µM
TGI (SNB-75 CNS): > 100 µM
TGI (SR leukemia): > 100 µM
TGI (SW-620 colon): > 100 µM
TGI (T-47D breast): > 100 µM
TGI (TK-10 renal): > 100 µM
TGI (U251 CNS): > 100 µM
TGI (UACC-257 melanoma): > 100 µM
TGI (UACC-62 melanoma): > 100 µM
TGI (UO-31 renal): > 100 µM

c1ccc2c(c1)CCN2CCN1CCc2ccccc21
TGI (786-0 renal): > 10 µM
TGI (A549 NSCLC): > 10 µM
TGI (ACHN renal): > 10 µM
TGI (CAKI-1 renal): > 10 µM
TGI (CCRF-CEM leukemia): > 10 µM
TGI (COLO 205 colon): > 10 µM
TGI (DU-145 prostate): > 10 µM
TGI (EKVX NSCLC): > 10 µM
TGI (HCC-2998 colon): > 10 µM
TGI (HCT-116 colon): > 10 µM
TGI (HCT-15 colon): > 10 µM
TGI (HL-60(TB) leukemia): > 10 µM
TGI (HOP-62 NSCLC): > 10 µM
TGI (HOP-92 NSCLC): > 10 µM
TGI (HS 578T breast): > 10 µM
TGI (HT29 colon): > 10 µM
TGI (IGROV1 ovarian): > 10 µM
TGI (K-562 leukemia): > 10 µM
TGI (KM12 colon): > 10 µM
TGI (LOX IMVI melanoma): > 10 µM
TGI (M14 melanoma): > 10 µM
TGI (MCF7 breast): > 10 µM
TGI (MDA-MB-231 breast): > 10 µM
TGI (MDA-MB-435): > 10 µM
TGI (MDA-N): > 10 µM
TGI (MOLT-4 leukemia): > 10 µM
TGI (NCI-H226 lung): > 10 µM
TGI (NCI-H23 lung): > 10 µM
TGI (NCI-H460 lung): > 10 µM
TGI (NCI-H522 lung): > 10 µM
TGI (NCI/ADR-RES ovarian): > 10 µM
TGI (OVCAR-3 ovarian): > 10 µM
TGI (OVCAR-4 ovarian): > 10 µM
TGI (OVCAR-5 ovarian): > 10 µM
TGI (OVCAR-8 ovarian): > 10 µM
TGI (PC-3 prostate): > 10 µM
TGI (RPMI-8226 leukemia): > 10 µM
TGI (RXF 393 renal): > 10 µM
TGI (SF-268 CNS): > 10 µM
TGI (SF-295 CNS): > 10 µM
TGI (SF-539 CNS): > 10 µM
TGI (SK-MEL-2 melanoma): > 10 µM
TGI (SK-MEL-28 melanoma): > 10 µM
TGI (SK-MEL-5 melanoma): > 10 µM
TGI (SK-OV-3 ovarian): > 10 µM
TGI (SN12C renal): > 10 µM
TGI (SNB-19 CNS): > 10 µM
TGI (SNB-75 CNS): > 10 µM
TGI (SR leukemia): > 10 µM
TGI (SW-620 colon): > 10 µM
TGI (T-47D breast): > 10 µM
TGI (TK-10 renal): > 10 µM
TGI (U251 CNS): > 10 µM
TGI (UACC-257 melanoma): > 10 µM
TGI (UACC-62 melanoma): > 10 µM
TGI (UO-31 renal): > 10 µM

Cc1cc2c3ccccc3nc2c2cc[nH]c(C)c12
TGI (786-0 renal): 3.06 µM
TGI (A549 NSCLC): 50.8 µM
TGI (ACHN renal): 52.4 µM
TGI (CAKI-1 renal): 51 µM
TGI (CCRF-CEM leukemia): 4.77 µM
TGI (COLO 205 colon): 4.31 µM
TGI (DU-145 prostate): 29.8 µM
TGI (EKVX NSCLC): > 70.7 µM
TGI (HCC-2998 colon): 6.67 µM
TGI (HCT-116 colon): 3.57 µM
TGI (HCT-15 colon): 7.59 µM
TGI (HL-60(TB) leukemia): 4.23 µM
TGI (HOP-62 NSCLC): > 64.7 µM
TGI (HOP-92 NSCLC): 49.9 µM
TGI (HS 578T breast): > 65.5 µM
TGI (HT29 colon): > 80.6 µM
TGI (IGROV1 ovarian): > 55.9 µM
TGI (K-562 leukemia): 3.59 µM
TGI (KM12 colon): > 31.6 µM
TGI (LOX IMVI melanoma): 4.89 µM
TGI (M14 melanoma): 3.42 µM
TGI (MALME-3M melanoma): 28.8 µM
TGI (MCF7 breast): > 100 µM
TGI (MDA-MB-231 breast): 17.1 µM
TGI (MDA-MB-435): 3.45 µM
TGI (MDA-N): 3.3 µM
TGI (MOLT-4 leukemia): 22.1 µM
TGI (NCI-H226 lung): 28.2 µM
TGI (NCI-H23 lung): > 31.6 µM
TGI (NCI-H522 lung): 4.49 µM
TGI (NCI/ADR-RES ovarian): > 100 µM
TGI (OVCAR-3 ovarian): > 35.4 µM
TGI (OVCAR-4 ovarian): > 100 µM
TGI (OVCAR-5 ovarian): 36.5 µM
TGI (OVCAR-8 ovarian): 31.6 µM
TGI (PC-3 prostate): > 85.5 µM
TGI (RPMI-8226 leukemia): 20 µM
TGI (SF-268 CNS): 31.2 µM
TGI (SF-295 CNS): > 88.5 µM
TGI (SF-539 CNS): 11.4 µM
TGI (SK-MEL-2 melanoma): 23.3 µM
TGI (SK-MEL-28 melanoma): 3.3 µM
TGI (SK-MEL-5 melanoma): 20.2 µM
TGI (SK-OV-3 ovarian): 49.6 µM
TGI (SN12C renal): 18.5 µM
TGI (SNB-19 CNS): 48.9 µM
TGI (SNB-75 CNS): 36.5 µM
TGI (SR leukemia): > 74.8 µM
TGI (SW-620 colon): 6.87 µM
TGI (T-47D breast): 38.9 µM
TGI (TK-10 renal): 37.6 µM
TGI (U251 CNS): 5.62 µM
TGI (UACC-257 melanoma): 46.9 µM
TGI (UACC-62 melanoma): 27.9 µM
TGI (UO-31 renal): 45.1 µM
